Source: US20250228954A1, “Designing Antisense Oligonucleotide Delivery Peptides by Interpretable Machine Learning” (Sarepta Therapeutics, Inc., priority 2020, published 2025)
Square brackets hold non-standard residues; d marks the D form. Ends that are not written are not given here. Ahx = NCCCCCC(=O)O; βAla = NCCC(=O)O

Tests used:
HeLa 654 cells [1] = experiment: HeLa-654 eGFP assay (corrective splicing / exon skipping by PMO IVS2-654); type: cell-based, human; settings: 5 μM, 22 h; for FOLD OVER PMO: eGFP fluorescence of PMO-peptide conjugate relative to unconjugated PMO
Description: With the 36 constructs synthesized, the ability to modulate PMO activity using the modified HeLa cell assay was tested. The HeLa-654 cells were stably transfected to express a nonfluorescent eGFP protein. The eGFP gene is interrupted by a mutant intron from the human β-globin gene (IVS2-654). The insertion alters pre-mRNA splicing to cause retention of a fragment in the mature mRNA that results in a nonfluorescent protein. PMO IVS2-654 base-pairs with the B-globin insertion, modifies mRNA splicing, and thereby leads to expression of fluorescent eGFP.
For treatment, the crude reaction mixture was diluted to 5 μM in media. The concentration of the modular construct was calculated based on the original concentration of the module 1-2 conjugate mixed in the reaction. Using media containing 10% fetal bovine serum (FBS), the cells were treated with each construct for 22 hours, after which the cellular fluorescence was measured by flow cytometry.
From the lists of hundreds of predicted peptide sequences, twenty candidates were selected that varied in length, charge, and predicted activity to synthesize and test. Just as with the PMO-peptide library, the PMO-Mach constructs were first tested for PMO delivery in the HeLa 654 assay at 5 μM in complete media for 22 hours and analyzed by flow cytometry (FIG. 14). Experiments were conducted using three technical triplicates and two or three biological replicates.
(§1) HeLa 654 cells were maintained in MEM supplemented with 10% (v/v) fetal bovine serum (FBS) and 1% (v/v) penicillin-streptomycin at 37° C. and 5% CO2. Eighteen hours prior to treatment, the cells were plated at a density of 5,000 cells per well in a 96-well plate in MEM supplemented with 10% FBS and 1% penicillin-streptomycin. The day of the experiment, the 384 well plate containing the crude reaction mixtures in DMSO was diluted to 100 μM by the addition of 16.8 μL of PBS to the 3.2 μL reaction mixture. Then, each construct was diluted to 5 μM in MEM supplemented with 10% FBS and 1% penicillin-streptomycin. Cells were incubated with each conjugate at a concentration of 5 μM for 22 hours at 37° C. and 5% CO2. Next, the treatment media was aspirated the cells were incubated with Trypsin-EDTA 0.25% for 15 min at 37° C. and 5% CO2, washed 1× with PBS, and resuspended in PBS with 2% FBS and 2 μg/mL propidium iodide. Flow cytometry analysis was carried out on a BD LSRII flow cytometer. Gates were applied to the data to ensure that cells that were highly positive for propidium iodide or had forward/side scatter readings that were sufficiently different from the main cell population were excluded. Each sample was capped at 5,000 gated events.
Analysis was conducted using Graphpad Prism 7. For each sample, the mean fluorescence intensity and the number of gated cells was measured (FIGS. 8 and 9) and the intensity multiplied by the cell number was calculated (FIG. 7).

HeLa 654 cells [2] = experiment: Cytotoxicity by gated cell count and propidium iodide staining in flow cytometry; type: cell-based, human; settings: at the concentrations tested in dose-response, 22 h
Excerpt: The different modules led to several noticeable trends in the level of cellular fluorescence (FIG. 6). When module 2 was DPV6, the overall construct consistently led to high fluorescence, regardless of which peptides were placed in module 3 and 4. However, when either pVEC or TP10 was placed in module 2, minor cellular fluorescence was observed. A gated cell count was used during flow cytometry as an indirect read-out to control for the toxicity of the compounds. Highly toxic compounds led to a reduction in overall cell count and non-viable cells were gated out based upon propidium iodide staining. In this experiment, it was observed that when the module 3 peptide was the nuclear localization sequence KRVK, lower cell counts were consistently observed.
In the same format as described above, HeLa 654 cells were treated with varying concentrations of Mach 2, 3, 4, and 7 for 22 hours and analyzed by flow cytometry.
as §1

| Compound | FOLD OVER PMO (HeLa 654 cells [1]) | cytotoxicity as determined by cell count and PI staining (HeLa 654 cells [2]) | PMO delivery / activity, result in words (HeLa 654 cells [1]) |
| --- | --- | --- | --- |
| P1: PMO IVS2-654 conjugate of peptide KXKKQQGKKKHR (SEQ ID NO: 69) (K[Ahx]KKQQGKKKHR; also: PMO IVS2-654 conjugate) | 2.9 | – | – |
| CSCC[C@H](NC(=O)[C@H](CCCCN)NC(=O)[C@H](CCCCN)NC(=O)[C@@H]1CCCN1C(=O)[C@H](CCC(N)=O)NC(=O)[C@@H]1CCCN1C(=O)[C@@H](NC(=O)[C@H](CCCCN)NC(=O)[C@H](CCCCN)NC(=O)[C@H](CCCCN)NC(=O)[C@@H]1CCCN1C(=O)[C@H](Cc1c[nH]c2ccccc12)NC(=O)[C@H](CCCNC(=N)N)NC(=O)[C@H](Cc1c[nH]cn1)NC(=O)[C@H](CCCCN)NC(=O)[C@H](CCCCN)NC(=O)[C@H](CCCCN)NC(=O)[C@H](CC(N)=O)NC(=O)[C@H](CCC(N)=O)NC(=O)[C@H](CCCCN)NC(=O)[C@H](CCCCN)NC(=O)CNC(=O)[C@H](CCCCN)NC(=O)[C@H](CCCCN)NC(=O)CCCCn1nnc2c1-c1ccccc1N(C(=O)CCCCC(=O)N1C[C@@H](COP(=O)(N(C)C)N3C[C@@H](COP(=O)(N(C)C)N4C[C@@H](COP(=O)(N(C)C)N5C[C@@H](COP(=O)(N(C)C)N6C[C@@H](COP(=O)(N(C)C)N7C[C@@H](COP(=O)(N(C)C)N8C[C@@H](COP(=O)(N(C)C)N9C[C@@H](COP(=O)(N(C)C)N%10C[C@@H](COP(=O)(N(C)C)N%11C[C@@H](COP(=O)(N(C)C)N%12C[C@@H](COP(=O)(N(C)C)N%13C[C@@H](COP(=O)(N(C)C)N%14C[C@@H](COP(=O)(N(C)C)N%15C[C@@H](COP(=O)(N(C)C)N%16C[C@@H](COP(=O)(N(C)C)N%17C[C@@H](COP(=O)(N(C)C)N%18C[C@@H](COP(=O)(N(C)C)N%19C[C@@H](COP(=O)(N(C)C)N%20CCN(C(=O)OCCOCCOCCO)CC%20)O[C@@H](n%20cnc%21c(=O)[nH]c(N)nc%21%20)C%19)O[C@@H](n%19ccc(N)nc%19=O)C%18)O[C@@H](n%18cc(C)c(=O)[nH]c%18=O)C%17)O[C@@H](n%17cnc%18c(N)ncnc%18%17)C%16)O[C@@H](n%16cc(C)c(=O)[nH]c%16=O)C%15)O[C@@H](n%15cc(C)c(=O)[nH]c%15=O)C%14)O[C@@H](n%14cnc%15c(N)ncnc%15%14)C%13)O[C@@H](n%13ccc(N)nc%13=O)C%12)O[C@@H](n%12ccc(N)nc%12=O)C%11)O[C@@H](n%11cc(C)c(=O)[nH]c%11=O)C%10)O[C@@H](n%10cc(C)c(=O)[nH]c%10=O)C9)O[C@@H](n9cnc%10c(N)ncnc%109)C8)O[C@@H](n8cnc9c(N)ncnc98)C7)O[C@@H](n7ccc(N)nc7=O)C6)O[C@@H](n6ccc(N)nc6=O)C5)O[C@@H](n5ccc(N)nc5=O)C4)O[C@@H](n4cnc5c(N)ncnc54)C3)O[C@@H](n3cnc4c(=O)[nH]c(N)nc43)C1)Cc1ccccc1-2)C(C)C)C(=O)N[C@@H](Cc1ccccc1)C(=O)N[C@@H](CCCCN)C(=O)N[C@@H](CCC(N)=O)C(=O)NCC(=O)N[C@@H](C)C(=O)NCCC(=O)NCCCCCC(=O)N[C@@H](CCCNC(=N)N)C(=O)NCCCCCC(N)=O (stereo partly drawn) [MACH 4] | 25 | no cytotoxicity | – |
| MACH 11: PMO IVS2-654 conjugate of peptide TSNLKLHLAPPVKKKALKKPLYKAKKKKKVVSPTWXTDQEW (SEQ ID NO: 66), designed to have poor activity (TSNLKLHLAPPVKKKALKKPLYKAKKKKKVVSPTW[Ahx]TDQEW; also: PMO IVS2-654 conjugate) | 4 | – | did not significantly improve PMO delivery |
| CSCC[C@H](NC(=O)[C@H](CCCCN)NC(=O)[C@H](CC(C)C)NC(=O)[C@H](CC(N)=O)NC(=O)[C@H](CC(N)=O)NC(=O)[C@H](CCCCN)NC(=O)[C@H](CC(C)C)NC(=O)[C@H](CC(N)=O)NC(=O)[C@H](CCCCN)NC(=O)[C@H](CCCCN)NC(=O)[C@H](CCCCN)NC(=O)[C@H](C)NC(=O)[C@H](CC(N)=O)NC(=O)[C@H](CCCNC(=N)N)NC(=O)[C@H](CC(C)C)NC(=O)[C@@H]1CCCN1C(=O)[C@@H]1CCCN1C(=O)CCCCn1nnc2c1-c1ccccc1N(C(=O)CCCCC(=O)N1C[C@@H](COP(=O)(N(C)C)N3C[C@@H](COP(=O)(N(C)C)N4C[C@@H](COP(=O)(N(C)C)N5C[C@@H](COP(=O)(N(C)C)N6C[C@@H](COP(=O)(N(C)C)N7C[C@@H](COP(=O)(N(C)C)N8C[C@@H](COP(=O)(N(C)C)N9C[C@@H](COP(=O)(N(C)C)N%10C[C@@H](COP(=O)(N(C)C)N%11C[C@@H](COP(=O)(N(C)C)N%12C[C@@H](COP(=O)(N(C)C)N%13C[C@@H](COP(=O)(N(C)C)N%14C[C@@H](COP(=O)(N(C)C)N%15C[C@@H](COP(=O)(N(C)C)N%16C[C@@H](COP(=O)(N(C)C)N%17C[C@@H](COP(=O)(N(C)C)N%18C[C@@H](COP(=O)(N(C)C)N%19C[C@@H](COP(=O)(N(C)C)N%20CCN(C(=O)OCCOCCOCCO)CC%20)O[C@@H](n%20cnc%21c(=O)[nH]c(N)nc%21%20)C%19)O[C@@H](n%19ccc(N)nc%19=O)C%18)O[C@@H](n%18cc(C)c(=O)[nH]c%18=O)C%17)O[C@@H](n%17cnc%18c(N)ncnc%18%17)C%16)O[C@@H](n%16cc(C)c(=O)[nH]c%16=O)C%15)O[C@@H](n%15cc(C)c(=O)[nH]c%15=O)C%14)O[C@@H](n%14cnc%15c(N)ncnc%15%14)C%13)O[C@@H](n%13ccc(N)nc%13=O)C%12)O[C@@H](n%12ccc(N)nc%12=O)C%11)O[C@@H](n%11cc(C)c(=O)[nH]c%11=O)C%10)O[C@@H](n%10cc(C)c(=O)[nH]c%10=O)C9)O[C@@H](n9cnc%10c(N)ncnc%109)C8)O[C@@H](n8cnc9c(N)ncnc98)C7)O[C@@H](n7ccc(N)nc7=O)C6)O[C@@H](n6ccc(N)nc6=O)C5)O[C@@H](n5ccc(N)nc5=O)C4)O[C@@H](n4cnc5c(N)ncnc54)C3)O[C@@H](n3cnc4c(=O)[nH]c(N)nc43)C1)Cc1ccccc1-2)C(=O)N[C@@H](CC(=O)O)C(=O)N1CCC[C@H]1C(=O)N[C@@H](CCCCN)C(=O)N[C@@H](Cc1ccccc1)C(=O)N[C@H](C(=O)N[C@@H](CCCCN)C(=O)N[C@@H](CCCCN)C(=O)N[C@H](C(=O)N[C@@H](CCCCN)C(=O)N[C@@H](CCC(N)=O)C(=O)NCC(=O)N[C@@H](C)C(=O)N[C@@H](CC(C)C)C(=O)N[C@@H](CCCCN)C(=O)N[C@@H](CC(C)C)C(=O)N[C@@H](CC(N)=O)C(=O)N[C@@H](CCCNC(=N)N)C(=O)N[C@@H](CCCNC(=N)N)C(=O)N[C@@H](CCCCN)C(=O)N[C@@H](CCCCN)C(=O)N[C@@H](CC(N)=O)C(=O)N[C@@H](CCCNC(=N)N)C(=O)NCC(=O)N1CCC[C@H]1C(=O)N[C@@H](CCCCN)C(=O)NCC(=O)N1CCC[C@H]1C(=O)NCCCCCC(=O)N[C@@H](CCCCN)C(=O)N[C@@H](Cc1c[nH]cn1)C(=O)N[C@@H](Cc1c[nH]c2ccccc12)C(=O)N[C@H](C(=O)N[C@H](C(N)=O)[C@@H](C)O)[C@@H](C)O)C(C)C)[C@@H](C)O (stereo partly drawn) [MACH 2] | 27 | no cytotoxicity | – |
| P11: PMO IVS2-654 conjugate of peptide KKKKKQCKKKHRWPKXXC (SEQ ID NO: 79) (KKKKKQCKKKHRWPK[Ahx][Ahx]C; cysteine pairing not given here; also: PMO IVS2-654 conjugate) | 12.9 | – | – |
| MACH 6: PMO IVS2-654 conjugate of peptide ALKBRSAAKAVRWPKKAIKQASKKVAKYALKXXRKKKAASKXWLQLHWPRW (SEQ ID NO: 62) (ALK[βAla]RSAAKAVRWPKKAIKQASKKVAKYALK[Ahx][Ahx]RKKKAASK[Ahx]WLQLHWPRW; also: PMO IVS2-654 conjugate) | 43 | – | – |
